Data on one compound can be found in patent US20170027877A1, “DRUG COMPOSITION AND METHOD FOR PREPARING THE SAME” (priority 2015, published 2017).

This data set is described as follows: Test for encapsulating rate of drugs in nanoparticles encapsulating double drugs. The data set is classed as physicochemical. Conditions: trend as pH of the aqueous mixture solution increased (pH 7.5 to 11, FIG. 1). How it is done: The synthesized nanoparticles encapsulating double drugs were placed in a concentrating centrifuge tube, and perform centrifugation at a speed of 4,000 rpm for 30 minutes.
(1). Encapsulating Rate of Cisplatin
The clear solution in the concentrating centrifuge tube was diluted 20 folds and mixed with 0.14% solution of o-phenylenediamine in dimethylformamide at a ratio of 1:1, the mixture was heated at 100° C. for 30 minutes and then was cooled in a refrigerator at −20° C. for 10 minutes, finally, the solution was examined for the peak value at a wavelength of 705 nm with UV-visual spectrum, and content of non-encapsulated Cisplatin was converted from the peak value, thereby giving the encapsulating rate of Cisplatin.
(2). Encapsulating Rate Test of Demethoxycurcumin
The nanoparticles on the filter membrane of the concentrating centrifuge tube were re-dissolved in double-distilled water, the solution was mixed with methanol at a ratio of 1:1, and the mixture was analyzed using HPLC. The determination was performed at a flow rate of 1 mL/min under the detection condition at a wavelength of 425 nm, using C18 as stationary phase and acetonitrile-0.3% FA (50:50, v/v) as mobile phase, and the detection result was converted into the concentration of demethoxycurcumin to obtain the encapsulating rate of the drug.

As for `N.N.[Cl][Pt][Cl]` [Cisplatin], the encapsulating rate entry is “increased”.
